The record followed here is patent publication US20260199479A1, “DRUG LINKER AND LINKER-CONJUGATED COMPOUND” (Anti-Microbial Savior BioteQ Co., Ltd., priority 2022, published 2026).

≈ marks a conversion by molar mass, not a printed value.

The nature of series [1]: Water solubility test (HPLC). The series is classed as physicochemical. The conditions noted are these: double distilled water, thermodynamic from solid. Here is the method: 5 mg of the standard test compound was weighed and dissolved in 5 mL of IPA as a stock solution (1 mg/mL). Double distilled water was then diluted to prepare 1000, 100, 50, 25, 12.5, 10, 5, 2.5, 1.25, 1, 0.5, 0.25, 0.125 μg/mL standard solution calibration lines. 60 μL of each concentration standard solution was used for HPLC analysis. Peak areas were integrated to establish a calibration line, and the accuracy of the analysis method was evaluated through the correlation coefficient (R-squared).
1 mL of double distilled water was weighed into a microcentrifuge tube and the test compound was dissolved. Undissolved compounds were ensured to be still present by vortexing for 5 min and sonicating for 20 min. After centrifugation, the supernatant was filtered through a 0.22 μm PTEF membrane. The […] was analyzed by HPLC and the water solubility was calculated from the peak area.

A further series concerns HCT-15. Nature of the series: Cytotoxicity screening, PrestoBlue cell viability. The conditions noted are these: HCT-15, colon cancer cells. It is filed as cell-based. Here is the method:
HCT-15, colorectal adenocarcinoma, was obtained from the Bioresource Collection and Research Center (BCRC, Taiwan, China). Cells were cultured in RPMI 1640 culture medium (Gibco, USA) containing 10% fetal bovine serum (FBS) (Gibco, USA) and 1% antibiotics (1×penicillin, streptomycin and glutamic acid) (Gibco, USA).
(§1) Cell viability was assessed with PrestoBlue assay (Invitrogen, USA). Cells were seeded into 96-well plates and cultured with test compounds according to the manufacturer's protocol. After 48 hours of exposure to test compounds, the culture medium was discarded and rinsed with PBS. Then, add 10 μL PrestoBlue reagent containing 90 μL culture medium to the cells and incubate the cell plate at 37° C. in the dark for 120 min. Absorbance was measured at the experimental wavelength of 570 nm and the normalized wavelength of 600 nm in a SpectraMax iD3 microplate reader. […] Cell viability was expressed as a percentage relative to the control, and calculated using the following formula: cell viability (%)=[(Absorbance of test wells at 570 nm−Absorbance of only culture medium wells at 570 nm−Absorbance of test wells at 600 nm+Absorbance of only culture medium wells at 600 nm)/Absorbance of the control well at 570 nm−Absorbance of only culture medium wells at 570 nm-Absorbance of the control well at 600 nm+Absorbance nm of only culture medium wells at 600 nm)]×100.

Another series has as its system AsPC-1. Nature of the series: Cytotoxicity screening, PrestoBlue cell viability. The series is classed as cell-based, human. As to conditions: AsPC-1, pancreatic cancer cells. As for the experimental part: AsPC-1, human pancreatic adenocarcinoma ascites metastatic cells, were obtained from the Bioresource Collection and Research Center (BCRC, Taiwan, China). Cells were cultured in RPMI 1640 culture medium (Gibco, USA) containing 10% FBS (Gibco, USA) and 1% antibiotics (1×penicillin, streptomycin and glutamic acid) (Gibco, USA).
as §1

The test system of another series is Caco-2. Description: Cytotoxicity screening, PrestoBlue cell viability. The series is classed as cell-based. The conditions noted are these: Caco-2, colon cancer cells. As for the experimental part:
Caco-2, colorectal adenocarcinoma, was obtained from the Bioresource Collection and Research Center ([…]). Cells were cultured in minimal essential Eagle's culture medium (FBS) (Gibco, USA) containing 2 mM L-glutamic acid, 1.5 mg/mL sodium bicarbonate, 0.1 mM non-essential amino acids, 1.0 mM sodium pyruvate (Gibco, USA), 20% fetal bovine serum (Gibco, USA), and 1% antibiotics (1×penicillin, streptomycin and glutamic acid) (Gibco, USA).
as §1, with “Then, add 10 μL PrestoBlue reagent containing 90 μL culture medium to the cells and incubate the cell plate at 37° C. in the dark for 120 min.” left out

The subject of another series is AML12 cells. Description: Cytotoxicity screening, PrestoBlue cell viability. The conditions noted are these: AML12, normal hepatocytes. It is filed as cell-based, mouse. As for the experimental part: AML12 cells, alpha mouse liver 12, were obtained from the American Type Culture Collection (ATCC, USA). Cells were cultured in DMEM: F12 culture medium (Gibco, USA), 10% fetal bovine serum (FBS) (Gibco, USA), 10 μg/mL insulin, 5.5 μg/mL transferrin, 5 ng/ml selenium, 40 ng/ml dexamethasone (Gibco, USA), and 1% antibiotics (1×penicillin, streptomycin and glutamic acid) (Gibco, USA).
as §1, with “Then, add 10 μL PrestoBlue reagent containing 90 μL culture medium to the cells and incubate the cell plate at 37° C. in the dark for 120 min.” left out

The test system of another series is HuCCT1 cells. Nature of the series: Cytotoxicity screening, PrestoBlue cell viability. The series is classed as cell-based, human. As to conditions: HuCCT1, 20 μg/mL. Here is the method:
HuCCT1 cells, human cholangiocarcinoma cells, were obtained from iCell Bioscience Inc. (iCell, China). Cells were cultured in 90% RPMI 1640 culture medium (Gibco, USA), 10% fetal bovine serum (FBS) (Gibco, USA), and 1% antibiotics (1×penicillin, streptomycin and glutamine) (Gibco, USA).
as §1

The next series deals with NOZ cells. Description: Cytotoxicity screening, PrestoBlue cell viability. The conditions noted are these: gallbladder cancer cells. It is filed as cell-based, human. As for the experimental part: NOZ cells, human gallbladder cancer cells, were obtained from the Japanese Collection of Research Bioresources Cell Bank (JCRB, Japan). Cells were cultured in 90% William's E culture medium (Gibco, USA), 10% fetal bovine serum (FBS) (Gibco, USA), and 1% antibiotics (1×penicillin, streptomycin and glutamine) (Gibco, USA).
as §1

A further series has as its system MCF-7. Nature of the series: Cytotoxicity screening, PrestoBlue cell viability. It is filed as cell-based, human. As to conditions: MCF-7, breast cancer cells. Here is the method: MCF7, human breast cancer, was obtained from the Bioresource Collection and Research Center (BCRC, Taiwan, China). Cells were cultured in minimal essential Eagle's culture medium (FBS) (Gibco, USA) containing 2 mM L-glutamic acid, 1.5 mg/mL sodium bicarbonate, 0.1 mM non-essential amino acids, 1.0 mM sodium pyruvate (Gibco, USA), 10% fetal bovine serum (Gibco, USA) and 1% antibiotics (1×penicillin, streptomycin and glutamic acid) (Gibco, USA).
as §1, with “Then, add 10 μL PrestoBlue reagent containing 90 μL culture medium to the cells and incubate the cell plate at 37° C. in the dark for 120 min.” left out

The next series deals with PANC-1. Description: Cytotoxicity screening, PrestoBlue cell viability. The series is classed as cell-based, human. As to conditions: PANC-1, pancreatic cancer cells. As for the experimental part: PANC-1, human pancreatic epithelioid carcinoma, was obtained from the American Type Culture Collection (ATCC, USA). Cells were cultured in DMEM culture medium (Gibco, USA) containing 10% FBS (Gibco, USA) and 1% antibiotics (1×penicillin, streptomycin and glutamic acid) (Gibco, USA).
(§2) Cell viability was assessed with PrestoBlue assay (Invitrogen, USA). Cells were seeded into 96-well plates and cultured with test compounds according to the manufacturer's protocol. After 48 hours of exposure to test compounds, the culture medium was discarded and rinsed with PBS. Then, add 10 μL PrestoBlue reagent containing 90 μL culture medium to the cells and incubate the cell plate at 37° C. in the dark for 120 min. Absorbance was measured at the experimental wavelength of 570 nm and the normalized wavelength of 600 nm in a SpectraMax iD3 microplate reader. The result was corrected by subtracting the blank value. Cell viability was expressed as a percentage relative to the control, and calculated using the following formula: cell viability (%)=[(Absorbance of test wells at 570 nm−Absorbance of only culture medium wells at 570 nm−Absorbance of test wells at 600 nm+Absorbance of only culture medium wells at 600 nm)/Absorbance of the control well at 570 nm−Absorbance of only culture medium wells at 570 nm-Absorbance of the control well at 600 nm+Absorbance nm of only culture medium wells at 600 nm)]×100.

Series [2] relates to normal cells or cancer cells. Nature of the series: Cytotoxicity tests in various cell lines (summary). The conditions noted are these: normal cells and cancer cells, various cell lines (Table 3). The series is classed as cell-based. Here is the method: as §2
Taking the linker of the present invention (n=2; X, Y, Z=O; R^1, R^2, R^4=H; R^3=CH3) as an example, the linker has significant advantages in terms of synthetic elastic properties. […]

The next series relates to BxPC-3. Nature of the series: Cytotoxicity screening, PrestoBlue cell viability. The series is classed as cell-based, human. As to conditions: BxPC-3, pancreatic cancer cells. Here is the method:
BxPC-3, human pancreatic adenocarcinoma cells, were obtained from the Bioresource Collection and Research Center (BCRC, Taiwan, China). Cells were cultured in RPMI 1640 culture medium (Gibco, USA) containing 10% FBS (Gibco, USA) and 1% antibiotics (1×penicillin, streptomycin and glutamic acid) (Gibco, USA).
as §1

In another series the test system is A549. Nature of the series: Cytotoxicity screening, PrestoBlue cell viability. It is filed as cell-based, human. As to conditions: A549, lung cancer cells. Here is the method:
A549, human non-small cell lung cancer cells, were obtained from the Bioresource Collection and Research Center (BCRC, Taiwan, China). Cells were cultured in F12K culture medium (Gibco, USA) containing 10% FBS (Gibco, USA) and 1% antibiotics (1×penicillin, streptomycin and glutamic acid) (Gibco, USA).
as §1

The test system of the next series is Vero E6 cells. Nature of the series: Cytotoxicity screening, PrestoBlue cell viability. It is filed as cell-based, cercopithecus aethiops. As to conditions: Vero E6, normal kidney cells. Here is the method: Vero E6 cells, cercopithecus aethiops renal epithelial cells, were obtained from the American Type Culture Collection (ATCC, USA). Cells were cultured in Dulbecco's Modified Eagle Medium (DMEM) (Gibco, USA) containing 10% FBS (Gibco, USA), 100 U/mL penicillin, and 100 μg/mL streptomycin (Gibco, USA). Cell viability was assessed with PrestoBlue assay (Invitrogen, USA). Cells were seeded into 96-well plates and cultured with test compounds according to the manufacturer's protocol. After 48 hours of exposure to test compounds, the culture medium was discarded and rinsed with PBS. Then, add 10 μL PrestoBlue reagent containing 90 μL culture medium to the cells and incubate the cell plate at 37° C. in the dark for 120 min. Absorbance was measured at the experimental wavelength of 570 nm and the normalized wavelength of 600 nm in a SpectraMax iD3 microplate reader. […] Cell viability was expressed as a percentage relative to the control, and calculated using the following formula: cell viability (%)=[(Absorbance of test wells at 570 nm−Absorbance of only culture medium wells at 570 nm−Absorbance of test wells at 600 nm+Absorbance of only culture medium wells at 600 nm)/Absorbance of the control well at 570 nm−Absorbance of only culture medium wells at 570 nm-Absorbance of the control well at 600 nm+Absorbance nm of only culture medium wells at 600 nm)]×100.

For another series, the system named is HuH28 cells. Nature of the series: Cytotoxicity screening, PrestoBlue cell viability. It is filed as cell-based, human. As to conditions: HuH28, 20 μg/mL. Here is the method: HuH28 cells, human liver, and cholangiocarcinoma cells, were obtained from the Japanese Collection of Research Bioresources Cell Bank (JCRB, Japan). Cells were cultured in 90% RPMI 1640 culture medium (Gibco, USA), 10% fetal bovine serum (FBS) (Gibco, USA), and 1% antibiotics (1×penicillin, streptomycin and glutamine) (Gibco, USA).
as §1

Usually solubility stands for how much of the substance goes into solution per volume. Higher therefore signals much dissolved substance. In the case of `CC(C)=CCC/C(C)=C/CC/C(C)=C/CO` [Farnesol, reference compound], the concentration in solution in series [1] (solubility) came to 87.4 µg/mL (≈ 393 µM).

As to `C/C(=C\CO)CC/C=C(\C)CCC(O)C(C)C(=O)O` (stereo not drawn) [Linker of the present invention, (6E,10E)-3,12-dihydroxy-2,6,10-trimethyldodec-6,10-dienoic acid], the “20 μg/mL 48-hour survival rate” value in the series with HCT-15 came out at 88.96 ± 15.45%; in the series on AsPC-1 it was 93.02 ± 5.01%; with Caco-2, 99.94 ± 3.16%; with AML12 cells it was 91.99 ± 2.6%; in the series with HuCCT1 cells it was 110.04 ± 0.17%; with NOZ cells it was 107.26 ± 14.11%. Moreover, the “20 μg/mL 48-hour survival rate” value is on record as 89.45 ± 8.95% with MCF-7; 106.67 ± 8.24% in the series with PANC-1; 91.33 ± 5.93% in the series with BxPC-3; 82.28 ± 5.53% in the series on A549; 96.28 ± 3.66% in the series with Vero E6 cells; 87.92 ± 5.14% in the series on HuH28 cells. Moreover, the cytotoxicity entry in series [2] is listed as “not cytotoxic”. In [1], this compound registered a solubility of 780 µg/mL (≈ 2890 µM).
